Where a name gives a salt, the structure may show the parent alone.
System: amyloid β production in transfected H4 (human neuroglioma) cells stably expressing APP constructs
Test: In vitro cell-based assay of inhibitors of amyloid β production (ELISA)
Settings: Homo sapiens, 16 h, transfected H4 cells expressing APP, approximately 16 hours incubation, amyloid β in medium by ELISA; read-out: ACTIVITY (IC50, inhibition of amyloid β production)
Outline: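 Cells expressing wild-type or variant APP were plated ≥6 h before medium was replaced with compound-containing medium (initial screen 10-100 μM) and incubated ~16 h. Secreted Aβ in medium was quantified by sandwich ELISA (C-terminal-specific mouse monoclonal capture, N-terminal rabbit polyclonal detection) against an Aβ standard curve.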

Row | IC50 [nM] | Compound
1 | 100 to 500 | C[C@H](C(=O)NCc1cccs1)N(c1cc(Cl)ccc1F)S(=O)(=O)c1ccc(Cl)cc1 [Example 1357]
2 | 100 to 500 | CC(C)C(CO)NC(=O)[C@@H](C)N(c1cc(Cl)ccc1F)S(=O)(=O)c1ccc(Cl)cc1 (some centres unmarked) [Example 1349]

Same assay, conditions: Homo sapiens, 16 h, transfected H4 cells stably expressing APP constructs; approximately 16 hours incubation; amyloid β in medium by ELISA; read-out: ACTIVITY (IC50, inhibition of amyloid β production)

Row | IC50 [nM] | Compound
3 | ≤ 25 | CNS(=O)(=O)CCC[C@@H](C)N(c1cc(Cl)ccc1CO)S(=O)(=O)c1ccc(Cl)cc1 [Example 1233, 4-chloro-N-[5-chloro-2-(hydroxymethyl)phenyl]-N-[4-[(methylamino)sulfonyl]-1(R)-methylbutyl]benzenesulfonamide]
4 | ≤ 25 | CC(C)N(C)S(=O)(=O)CCC[C@@H](C)N(c1cc(Cl)ccc1Cl)S(=O)(=O)c1ccc(Cl)cc1 [Example 1212, 4-chloro-N-[2,5-dichlorophenyl]-N-[4-[[N-(1-methylethyl)methylamino]sulfonyl]-1(R)-methylbutyl]benzenesulfonamide]

Same assay, conditions: Homo sapiens, 16 h, transfected H4 cells stably expressing APP; approximately 16 hours incubation; amyloid β in medium by ELISA; Table B; read-out: ACTIVITY (IC50, inhibition of amyloid β production)

Row | IC50 [nM] | Compound
5 | 50 to 100 | CC(c1ccccc1OCCCCN(C)C(=O)CSc1ccccc1)N(c1cc(F)ccc1F)S(=O)(=O)c1ccc(Cl)cc1 (centres unmarked) [Example 384, N-{4-[2-(1-{[(4-chlorophenyl)sulfonyl]-2,5-difluoroanilino}ethyl)phenoxy]butyl}-N-methyl-2-(phenylsulfanyl)acetamide]
6 | 50 to 100 | C[C@H](c1ccc(F)cc1CN1CCS(=O)(=O)CC1)N(c1cc(F)ccc1F)S(=O)(=O)c1ccc(Cl)cc1 [Example 405]

Same assay, conditions: Homo sapiens, 16 h, transfected H4 cells stably expressing APP; approximately 16 hours incubation; amyloid β in medium by ELISA; read-out: ACTIVITY (IC50, inhibition of amyloid β production)

Row | IC50 [nM] | Compound
7 | > 500 | O=S(=O)(c1ccc(Cl)cc1)N(CCc1ccccc1OCCCN1CCCCC1)c1ccccc1 [Example 972, 4-chloro-N-phenyl-N-(2-{2-[3-(1-piperidinyl)propoxy]phenyl}ethyl)benzenesulfonamide hydrochloride]
8 | > 500 | COc1ccc(S(=O)(=O)N(Cc2ccccc2OCCCN2CCCCC2)c2cc(F)ccc2F)cc1 [Example 879, N-(2,5-difluorophenyl)-4-methoxy-N-{2-[3-(1-piperidinyl)propoxy]benzyl}benzenesulfonamide hydrochloride]
9 | > 500 | O=[N+]([O-])c1ccc(S(=O)(=O)CCCOc2ccccc2CN(c2cc(F)ccc2F)S(=O)(=O)c2ccc(Cl)cc2)cc1 [Example 905, 4-chloro-N-(2,5-difluorophenyl)-N-(2-{3-[(4-nitrophenyl)sulfonyl]propoxy}benzyl)benzenesulfonamide]
10 | 100 to 500 | O=S(=O)(c1ccc(Cl)cc1)N(Cc1ccccc1OCCCSC1CCCCC1)c1cc(F)ccc1F [Example 869, 4-chloro-N-{2-[3-(cyclohexylsulfanyl)propoxy]benzyl}-N-(2,5-difluorophenyl)benzenesulfonamide]
11 | 100 to 500 | C=Cc1ccccc1[C@@H](C)N(c1cc(F)ccc1F)S(=O)(=O)c1ccc(Cl)cc1 [Example 874, 4-chloro-N-(2,5-difluorophenyl)-N-[(1R)-1-(2-vinylphenyl)ethyl]benzenesulfonamide]

Same assay, conditions: Table B; transfected H4 cells stably expressing APP; approximately 16 hours incubation; amyloid β in medium by ELISA; read-out: ACTIVITY (inhibitory concentration IC50, inhibition of amyloid β production)

Row | IC50 [nM] | Compound
12 | ≤ 25 | CC(=O)OCc1ccc(Cl)cc1N([C@H](C)CCCS(=O)(=O)O)S(=O)(=O)c1ccc(Cl)cc1 [Example 11]

Same assay, conditions: transfected H4 cells stably expressing APP constructs; approximately 16 hours incubation; amyloid β in medium by ELISA; read-out: ACTIVITY (IC50, inhibition of amyloid β production)

Row | Compound | IC50 [nM]
13 | CC[C@H](CSCC(=O)O)N(c1cc(Cl)ccc1Cl)S(=O)(=O)c1ccc(Cl)cc1 [Example 1186, (5R)-5-[(2,5-dichlorophenyl)-[(4-chlorophenyl)sulfonyl]-amino]-3-thioheptanoic acid] | 25 to 50
14 | C[C@H](CCN1CCC(S(C)(=O)=O)CC1)N(c1cc(Cl)ccc1Cl)S(=O)(=O)c1ccc(Cl)cc1 [Example 1146, 4-chloro-N-(2,5-dichlorophenyl)-N-[3-[(4-methylsulfonyl)-1-piperidinyl]-1(R)-methylpropyl]benzenesulfonamide] | 100 to 500
15 | CC[S+]([O-])CCC[C@@H](C)N(c1cc(Cl)ccc1CO)S(=O)(=O)c1ccc(Cl)cc1 (stereo partly drawn) [Example 1222, 4-chloro-N-[5-chloro-2-(hydroxymethyl)phenyl]-N-[1(R)-methyl-(4-ethylsulfinyl)butyl]benzenesulfonamide] | ≤ 25
16 | CCS(=O)(=O)CCC[C@@H](C)N(c1cc(F)ccc1F)S(=O)(=O)c1ccc(Cl)cc1 [Example 1166, 4-chloro-N-[2,5-difluorophenyl]-N-[1(R)-methyl-(4-ethylsulfonyl)butyl]benzenesulfonamide] | ≤ 25
17 | CC(C)Oc1c(NCC[C@@H](C)N(c2cc(F)ccc2F)S(=O)(=O)c2ccc(Cl)cc2)c(=O)c1=O [Example 1141, 4-chloro-N-(2,5-difluorophenyl)-N-[3-(2-isopropoxy-3,4-dioxo-1-cyclobutenyl)amine-1(R)-methylpropyl]benzenesulfonamide] | 100 to 500
18 | C[C@H](CCCS(=O)(=O)N(C)C1CCCC1)N(c1cc(Cl)ccc1Cl)S(=O)(=O)c1ccc(Cl)cc1 [Example 1215, 4-chloro-N-[2,5-dichlorophenyl]-N-[4-[[(N-cyclopentyl)methylamino]sulfonyl]-1(R)-methylbutyl]benzenesulfonamide] | 25 to 50
19 | CSCCC[C@@H](C)N(c1cc(Cl)ccc1Cl)S(=O)(=O)c1ccc(Cl)cc1 [Example 1176, 4-chloro-N-[2,5-dichlorophenyl]-N-[1(R)-methyl-(4-methylthio)butyl]benzenesulfonamide] | ≤ 25

Same assay, conditions: transfected H4 cells stably expressing APP; approx. 16 h incubation; amyloid β in medium by ELISA; read-out: ACTIVITY (IC50, inhibition of amyloid β production)

Row | IC50 [nM] | Compound
20 | 100 to 500 | N-{3-[2-(1-{[(4-chlorophenyl)sulfonyl]-2,5-difluoroanilino}ethyl)phenoxy]propyl}-4-methylbenzamide [Example 707]
21 | 100 to 500 | N-{3-[2-(1-{[(4-chlorophenyl)sulfonyl]-2,5-difluoroanilino}ethyl)phenoxy]ethyl}-N-methyl-2-(trifluoromethyl)benzamide [Example 697]
22 | 100 to 500 | N-{3-[2-(1-{3-[2-(1-{[(4-chlorophenyl)sulfonyl]-2,5-difluoroanilino}ethyl)phenoxy]butyl}-2-cyclohexyl-N-methylacetamide [Example 686]
23 | 100 to 500 | 2-[2-((1R)-1-{[(4-chlorophenyl)sulfonyl]-2,5-difluoroanilino}ethyl)phenyl]ethyl 3,4-difluorobenzylcarbamate [Example 726]

Row | Compound | IC50 [nM]
24 | CC(C)[C@@H](NC(=O)CCC[C@@H](C)N(c1cc(Cl)ccc1F)S(=O)(=O)c1ccc(Cl)cc1)C(=O)O [Example 544, (R)-4-Chloro-N-(5-chloro-2-fluorophenyl)-N-[5-[N-(R)-[1-(carboxy)-2-methylpropyl]amino]-1-methyl-5-oxopentyl]benzenesulfonamide] | 100 to 500

Same assay, conditions: transfected H4 cells stably expressing APP; approximately 16 hours incubation; amyloid β in medium by ELISA; Table B; read-out: ACTIVITY (IC50, inhibition of amyloid β production)

Row | IC50 [nM] | Compound
25 | 100 to 500 | C[C@H](c1ccc(F)cc1CCCC(=O)NC1CCCCC1)N(c1cc(F)ccc1F)S(=O)(=O)c1ccc(Cl)cc1 [Example 496, 4-[2-((1R)-1-{[(4-chlorophenyl)sulfonyl]-2,5-difluoroanilino}ethyl)-5-fluorophenyl]-N-cyclohexylbutanamide]
26 | 50 to 100 | CNC(=O)CCCOc1ccccc1C(C)N(c1cc(F)ccc1F)S(=O)(=O)c1ccc(Cl)cc1 (centres unmarked) [Example 378, 4-[2-(1-{[(4-Chlorophenyl)sulfonyl]-2,5-difluoroanilino}ethyl)phenoxy]-N-methylbutanamide]

Row | Compound | IC50 [nM]
27 | O=S(=O)(c1ccc(Cl)cc1)N(Cc1ccccc1OCCCN1CCC(Cc2ccccc2)CC1)c1ccccc1 [Example 290, N-{2-[3-(4-benzyl-1-piperidinyl)propoxy]benzyl}-4-chloro-N-phenylbenzenesulfonamide Hydrochloride] | 25 to 50

Same assay, conditions: transfected H4 cells stably expressing APP; approximately 16 hours incubation; amyloid β in medium by ELISA; read-out: ACTIVITY (IC50, inhibition of amyloid β production)

Row | IC50 [nM] | Compound
28 | > 500 | 4-benzoyl-N-((1S)-1-{{(3-[2-({[(4-chlorophenyl)sulfonyl]-2,5-difluoroanilino}methyl)phenoxy]propyl}(methyl)amino]carbonyl}-5-{[5-(2-oxohexahydro- [Example 1053]
29 | > 500 | O=S1(=O)c2ccc(Cl)cc2-c2ccccc2N1Cc1ccccc1OCCCN1CCCCC1 [Example 948, 2-chloro-5-{2-[3-(1-piperidinyl)propoxy]benzyl}-6H-dibenzo]c,e][1,2]thiazine 5,5-dioxide hydrochloride]
30 | > 500 | N-{3-[2-({[(4-chlorophenyl)sulfonyl]-2,5-difluoroanilino}methyl)phenoxy]propyl}-N,4-dimethylbenzamide [Example 893]
31 | 100 to 500 | 2-((1R)-1-{[(4-chlorophenyl)sulfonyl]-2,5-difluoroanilino}ethyl)benzyl (1S)-1-phenylethylcarbamate [Example 823]
32 | > 500 | N-{3-[2-(1-{[(4-chlorophenyl)sulfonyl]-2,5-difluoroanilino}ethyl)phenoxy]propyl}-N-methyl-2,5-bis(trifluoromethyl)benzamide [Example 892]
33 | 100 to 500 | N-{3-[2-({[(4-chlorophenyl)sulfonyl]-2,5-difluoroanilino}methyl)phenoxy]propyl}-N-methyl-4-nitrobenzamide [Example 872]
34 | 100 to 500 | S-ethyl 2-[2-(1-{[(4-chlorophenyl)sulfonyl]-2,5-difluoroanilino}ethyl)phenoxy]ethyl(methyl)thiocarbamate [Example 856]
35 | 100 to 500 | N-{3-[2-(1-{[(4-chlorophenyl)sulfonyl]-2,5-difluoroanilino}ethyl)phenoxy]propyl}-4-iodobenzamide [Example 824]

— US6967196B1, “Sulfonamide compounds and uses thereof” (Bristol-Myers Squibb Company, priority 1999, dated 2005)
